Results taken from PMC3871529, “At a Supra-Physiological Concentration, Human Sexual Hormones Act as Quorum-Sensing Inhibitors” (PLoS ONE, 2013).

What was measured:
[1] = system: QS-signal accumulation in P. aeruginosa; test: AHL (C4-HSL, OC12-HSL) quantification in P. aeruginosa cultures by mass spectrometry; format: cell-based, Pseudomonas aeruginosa; settings: QSI at 0.5 mg/ml, 18-hour
Experimental: (§1) Figure 5 QSIs modulated QS-signal accumulation in P. aeruginosa. Growth kinetics (n = 6) of P. aeruginosa was measured (OD600) in the presence of the QSIs (estradiol, estrone, estriol, hordenine and 4-NPO) at 0.5 mg/ml using DMSO as a negative control. Cell counts were assessed (CFU/ml) at 8- and 18-hour, and C4-HSL and OC12-HSL concentration (µM) were determined in the bacterial cultures at 18-hour. Statistically different values (Student's t test with α = 0.01) are noted by asterisks.
(§2) QS gene transcription in P. aeruginosa PAO1 was monitored using PAO1 strains carrying various gene promoters fused to a lacZ reporter gene, as described in Vandeputte et al., 2010 and Table 1. PAO1 reporter strains were prepared according to Vandeputte et al.. Briefly, 18-hours-old liquid cultures (50 µl) were diluted in order to obtain a starting OD600 nm comprised between 0.02 and 0.03 in fresh LB medium supplemented with 50 mM MOPS pH 7.0 (1 ml), carbenicillin (300 µg/ml) and 10 µl of the QSIs to be tested (OD were measured using a SpectraMax M2 device from Molecular Devices). Test and control QSIs were diluted in 100% DMSO (resulting after addition to the growth medium in a 1% final concentration of DMSO). Cultures were incubated for 18 hours at 37°C with agitation. After incubation, cell densities were assessed spectrophotometrically (OD600 nm) and β-galactosidase assays were performed using the substrate o-nitrophenyl-β-D-galactopyranoside as described previously, [29]. Promoterless-lacZ fusions were used as controls. AHLs were quantified as described in Vandeputte et al.. All tests were performed in quintuplicates and three biological repetitions. The statistical significance of each test was evaluated by conducting Student's t tests and two-way ANOVA combined with the Tukey post-analysis test using the GraphPad Prism software and p values≤0.01 were considered significant.

[2] = system: Agrobacterium biosensor cells; test: Minimal bactericidal concentration (MBC); format: cell-based, Agrobacterium tumefaciens; settings: Agrobacterium; 99.9% reduction of 10^5 CFU/ml after 36 h at 30°C; read-out: MBC
Experimental: (§3) Aside from the effect of QSI on QS regulation, the toxicity of these compounds was tested on bacterial cells by measuring two parameters: the minimal inhibitory concentration (MIC) and minimal bactericidal concentration (MBC). MIC, which is the lowest concentration of QSI (µg/ml) inhibiting any visible culture after 36 h of incubation at 30°C, was estimated by culturing 10^5 CFU/ml of the Agrobacterium biosensor cells in the presence of different concentrations of the QSI. MBC, which is the lowest concentration of QSI (µg/ml) that results in a 99.9% reduction of the initial bacterial population (10^5 CFU/ml) after 36 h of incubation at 30°C in the presence of different concentrations of QSI, was estimated by plating 100 µL of the Agrobacterium cultures on agar LBm plates. After an incubation of 48 h at 30°C, CFU were counted and the MBC values were calculated.

[3] = system: P. aeruginosa; test: Growth kinetics of P. aeruginosa in the presence of QSIs; format: cell-based, Pseudomonas aeruginosa; settings: QSI at 0.5 mg/ml, OD600 and CFU at 8 and 18 hour
Experimental: as §1, §2

[4] = system: Agrobacterium biosensor cells; test: Minimal inhibitory concentration (MIC); format: cell-based, Agrobacterium tumefaciens; settings: Agrobacterium; 10^5 CFU/ml, 36 h at 30°C; read-out: MIC
Experimental: as §3

[5] = target: T1, LasR (Pseudomonas aeruginosa, UniProt P25084); test: E. coli bioindicator expressing LasR (pAL105, lasI::luxCDABE luminescence); format: cell-based; settings: OC12-HSL 100 µM; QSIs at 0.1 mg/ml, naringenin and naringin at 0.5 mg/ml
T1 construct: expressed in transfected cells; host or cells: Escherichia coli JLD271 carrying pAL105 (pSB401-derivative, lasR+ lasI::luxCDABE)
T1 sequence (P25084 whole entry): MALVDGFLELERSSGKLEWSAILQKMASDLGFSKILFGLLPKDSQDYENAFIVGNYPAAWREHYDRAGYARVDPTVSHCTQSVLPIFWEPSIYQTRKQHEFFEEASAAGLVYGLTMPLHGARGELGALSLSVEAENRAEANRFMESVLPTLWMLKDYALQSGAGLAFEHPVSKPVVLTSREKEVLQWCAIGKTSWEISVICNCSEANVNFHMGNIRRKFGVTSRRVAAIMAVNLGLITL
Experimental: (§4) We determined whether the AHL-binding transcriptional factors LasR and RhlR were impaired in their capacity to activate expression of the QS-regulated genes in the presence of various QSIs. This was achieved by using two E. coli bioindicator strains expressing either LasR or RhlR proteins and harboring an appropriate reporter lux operon for measuring their transcriptional activity in the presence of OC12-HSL at 100 µM and C4-HSL at 10 µM, respectively. Adding C4-HSL to the pAL101-bioindicator or OC12-HSL to the pAL105-bioindicator induced the expression of the reporter lux operon and the consequent production of luminescence. In contrast, only background levels of luminescence were detected in control strains harboring the plasmids pAL102 or pAL106, which lacks the rhlR or lasR gene, respectively.
(§5) Figure 7 QSIs modulated activity of the AHL-sensors in P. aeruginosa. Luminescence of the reporting operon lux, expressed in relative light units (RLU/OD600), was measured in E. coli bioindicator strains harboring the LasR (A) and RhlR (B) AHL-sensing systems of P. aeruginosa in the presence of […]. The QSIs estradiol, estrone, estriol and hordenine were added at 0.1 mg/ml, while naringenin and naringin, added at 0.5 mg/ml, were used as QSI-reference and non-QSI reference, respectively. Each test (n = 6) was compared with the DMSO-condition using Student's t test. Asterisks indicate statistically different data (p value of ≤0.01).
(§6) Escherichia coli JLD271 biosensor strains harboring LasR- and RhlR-based plasmids pAL105 and pAL101 and control plasmids pAL106 (LasR^-) and pAL102 (RhlR^−) (Table 1) were prepared according to Vandeputte et al.. Briefly, these strains were grown in LB medium supplemented with tetracycline (10 µg/ml) and chloramphenicol (25 µg/ml) for 24 h. Then 50-µl portions of the cultures were subcultured in 1 ml of LB medium (the starting OD600 ranged between 0.02 and 0.025 corresponding to 5.10^6 CFU) supplemented with 10 µl of DMSO (1% [vol/vol] final), 10 µl of naringenin or naringin dissolved in DMSO (2 mM, final concentration), or 10 µl of the molecule to be tested. To induce the expression of the lux operon, 0, 1, 10 or […] of C4-HSL was added to pAL101 and pAL102, while OC12-HSL was added to pAL105 and pAL106. After incubation for 2 h at 37°C with agitation (175 rpm), 200 µl of culture was transferred to 96-well OptiPlate-96 F plates from Perkin-Elmer, and the luminescence of each sample was measured by using a TopCount NXT device from Perkin-Elmer. The LasR(pAL106) and RhlR(pAL102) biosensors were used for background subtraction, and the OD600 values were measured to account for the differences in cell density. All experiments were performed in six replicates. The statistical significance of each test was evaluated by conducting Student's t tests using the GraphPad Prism software, and p values ≤0.05 were considered significant. Naringenin (4′,5,7-trihydroxyflavanone), naringin (4′,5,7-trihydroxyflavanone 7-rhamnoglucoside), the AHLs OC12-HSL and C4-HSL were purchased from Sigma-Aldrich and dissolved freshly in 100% DMSO before use. Tested QSIs were dissolved in 100% DMSO before use.

[6] = system: QS-regulated genes lasI, lasR, lasB, rhlI, rhlR, rhlA in P. aeruginosa PAO1; test: QS-regulated gene expression, lacZ transcriptional fusions in PAO1; format: cell-based, Pseudomonas aeruginosa; settings: QSI at 0.5 mg/ml, 18 hours at 37°C, β-galactosidase
Experimental: Figure 6 QSIs modulated QS-regulated genes in P. aeruginosa. The β-galactosidase (b-Gal) activity in Miller unit (MU) of the transcriptional fusions lasI-lacZ (A), lasR-lacZ (B), lasB-lacZ (C), rhlI-lacZ (D), rhlR-lacZ (E), rhlA-lacZ (F), and aecA-lacZ(G) were measured in the presence of estradiol, estrone, estriol, hordenine at 0.5 mg/ml, and naringenin at 1 mg/ml as a positive control and DMSO as a negative control. The statistical significance of each test (n = 5 and three biological replicates) was evaluated by Student's t test (i.e. each test was compared with the DMSO condition). Asterisks indicate statistically different data (p value of ≤0.01).
as §2

[7] = target: T2, RhlR (Pseudomonas aeruginosa, UniProt P54292); test: E. coli bioindicator expressing RhlR (pAL101, rhlI::luxCDABE luminescence); format: cell-based; settings: C4-HSL 10 µM; QSIs at 0.1 mg/ml, naringenin and naringin at 0.5 mg/ml
T2 construct: expressed in transfected cells; host or cells: Escherichia coli JLD271 carrying pAL101 (pSB401-derivative, rhlR+ rhlI::luxCDABE)
T2 sequence (P54292 whole entry): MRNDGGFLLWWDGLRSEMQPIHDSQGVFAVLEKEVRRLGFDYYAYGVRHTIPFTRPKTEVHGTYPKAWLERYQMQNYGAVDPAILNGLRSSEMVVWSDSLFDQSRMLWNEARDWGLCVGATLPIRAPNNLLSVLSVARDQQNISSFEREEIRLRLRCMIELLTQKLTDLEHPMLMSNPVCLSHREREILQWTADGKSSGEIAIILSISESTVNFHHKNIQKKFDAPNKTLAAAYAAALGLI
Experimental: as §4, §5, §6

Compound	C4-HSL concentration in cell cultures [1]	OC12-HSL concentration in cell cultures [1]	MBC [2] [µg/mL]	effect on growth of P. aeruginosa [3]	MIC [4] [µg/mL]	effect on LasR functionality (lux luminescence) [5]	expression of six QS-regulated genes (lasI, lasR, lasB, rhlI, rhlR, rhlA) [6]	effect on RhlR functionality (lux luminescence) [7]
C[C@]12CC[C@@H]3c4ccc(O)cc4CC[C@H]3[C@@H]1CC[C@@H]2O [Estradiol, estradiol]	reduction	reduction	> 100	did not affect the growth	> 100	affected LasR functionality	decreased	
O=C1CC(c2ccc(O)cc2)Oc2cc(O)cc(O)c21 (centres unmarked) [naringenin, 4′,5,7-trihydroxyflavanone]						less luminescence		less luminescence
C[C@@H]1O[C@@H](O[C@H]2[C@H](Oc3cc(O)c4c(c3)O[C@H](c3ccc(O)cc3)CC4=O)O[C@H](CO)[C@@H](O)[C@@H]2O)[C@H](O)[C@H](O)[C@H]1O [naringin, 4′,5,7-trihydroxyflavanone 7-rhamnoglucoside]						no effect		no effect
